Measurements as given in article PMC9161259 (ACS Omega, 2022).

How the values were obtained:
[1] = test system: A549 lung carcinoma cell line; assay: Cytotoxic assay; settings: Homo sapiens, A549, 48 h, read-out: Cytotoxic activity IC50, A549
[2] = test system: HuCCA-1 cholangiocarcinoma cancer cell line; assay: Cytotoxic assay; settings: Homo sapiens, HuCC-A1, 48 h, read-out: Cytotoxic activity IC50, HuCCA-1
[3] = test system: T47D hormone-dependent breast cancer cell line; assay: Cytotoxic assay; settings: Homo sapiens, 48 h, read-out: Cytotoxic activity IC50, T47D
[4] = test system: MOLT-3 lymphoblastic leukemia cell line; assay: Cytotoxic assay; settings: Homo sapiens, MOLT-3, 48 h, read-out: Cytotoxic activity IC50, MOLT-3
[5] = test system: MDA-MB-231 hormone-independent breast cancer cell line; assay: Cytotoxic assay; settings: Homo sapiens, MDA-MB-231, 48 h, read-out: Cytotoxic activity IC50, MDA-MB-231
Cytotoxic assay = settings: human, MRC-5 normal embryonic lung cell line
[6] = test system: HepG2 hepatocellular carcinoma cell line; assay: Cytotoxic assay; settings: Homo sapiens, HepG2, 48 h, read-out: Cytotoxic activity IC50, HepG2

SMILES	IC50 [1]	IC50 [2]	IC50 [3]	IC50 [4]	IC50 [5]	IC50 at 48 h (Cytotoxic assay)	IC50 [6]
N#Cc1ccc(NC2=C(Cl)C(=O)c3ccccc3C2=O)cc1 [compound 9, 4-((3-Chloro-1,4-dioxo-1,4-dihydronaphthalen-2-yl)amino)benzonitrile]	72.72 ± 0.21 µM	22.67 ± 0.09 µM	11.27 ± 0.06 µM	1.75 ± 0.2 µM	43.08 ± 0.19 µM	18.4 ± 1.65 µM	73.4 ± 2.26 µM
O=C1C=C(Nc2ccc(F)cc2)C(=O)c2ccccc21 [compound 17, 2-((4-Fluorophenyl)amino)naphthalene-1,4-dione]	> 50 µg/mL	9.65 ± 1.99 µM	88.7 ± 1.64 µM	> 50 µg/mL	21.8 ± 2.95 µM	21.6 ± 2.45 µM	23.4 ± 3.45 µM
O=C1C(Cl)=C(Nc2ccc(I)cc2)C(=O)c2ccccc21 [compound 6, 2-Chloro-3-((4-iodophenyl)amino)naphthalene-1,4-dione]	> 50 µg/mL	> 50 µg/mL	52.5 ± 0.85 µM	42.6 ± 8.11 µM	> 50 µg/mL	> 50 µg/mL	> 50 µg/mL
O=C1C(Cl)=C(Nc2ccc(C(F)(F)F)cc2)C(=O)c2ccccc21 [compound 7, 2-Chloro-3-((4-(trifluoromethyl)phenyl)amino)naphthalene-1,4-dione]	> 50 µg/mL	> 50 µg/mL	63.4 ± 2.12 µM	7.68 ± 0.84 µM	70.8 ± 2.19 µM	> 50 µg/mL	> 50 µg/mL
COc1ccc(NC2=CC(=O)c3ccccc3C2=O)cc1 [compound 18, 2-((4-Methoxyphenyl)amino)naphthalene-1,4-dione]	> 50 µg/mL	> 50 µg/mL	> 50 µg/mL	> 50 µg/mL	> 50 µg/mL	> 50 µg/mL	> 50 µg/mL
O=C1C=C(Nc2ccccc2)C(=O)c2ccccc21 [compound 16, 2-(Phenylamino)naphthalene-1,4-dione]	40.8 ± 1.51 µM	96.2 ± 2.84 µM	> 50 µg/mL	> 50 µg/mL	30.4 ± 0.86 µM	> 50 µg/mL	25.1 ± 3.31 µM
O=C1C(Br)=C(Nc2ccc(Br)cc2)C(=O)c2ccccc21 [compound 15, 2-Bromo-3-((4-bromophenyl)amino)naphthalene-1,4-dione]	> 50 µg/mL	70.2 ± 1.12 µM	> 50 µg/mL	7.17 ± 1.12 µM	65.5 ± 3.01 µM	> 50 µg/mL	4.94 ± 0.02 µM
O=C1C(Cl)=C(Nc2ccc(O)cc2)C(=O)c2ccccc21 [compound 12, 2-Chloro-3-((4-hydroxyphenyl)amino)naphthalene-1,4-dione]	30.73 ± 0.18 µM	8.21 ± 0.33 µM	14.7 ± 0.43 µM	4.67 ± 0.24 µM	4.77 ± 0.07 µM	11.4 ± 3.28 µM	22.6 ± 0.87 µM
COc1cc([C@@H]2c3cc4c(cc3[C@@H](O[C@@H]3O[C@@H]5CO[C@@H](C)O[C@H]5[C@H](O)[C@H]3O)[C@H]3COC(=O)[C@H]23)OCO4)cc(OC)c1O [etoposide, reference compound]	–	–	–	0.05 µM	–	–	50 ± 3.7 µM
